Columns and labels:
MCT1 = MCT1 (Homo sapiens (Human), UniProt P53985); test: Assay 4: MCT1-mediated lactate transport in BT20 breast cancer cells; type: cell-based; conditions: lactate transport (Table 27)
Description: Preparing BCECF-Loaded Cells
10 µL of a 30 mM DMSO stock of BCECF-AM ester (Life Technologies) is added and the cells are incubated at 37° C. for 5 min. The cells are pelleted (300 g, 5 min), washed once with 1 mL Tyrode's Solution, pH 7.4, re-pelleted (300 g, 5 min), and resuspended in 1 mL Tyrode's Solution, pH 7.4.
Assay 4: MCT1-Mediated Lactate Transport in BT20 Breast Cancer Cells.
Preparation of BCECF loaded cells are as described for Assay 1. Lactate transport assay is as described for Assay 1, except 10 mM L-lactate (rather than 50 mM) is added.

[1] = Metabolic stability in human liver microsomes (in vitro t1/2); type: in vitro ADME; conditions: human liver microsomes 0.5 mg/mL, 2 μM compound; for Human microsome % 60 min: % remaining at 60 min
Description: (§1) Metabolic Stability Assays The following are assays that may be used to evaluate the metabolic stability of compounds of Formula (I) in human, rat, or mouse microsomes. The assays follow a common procedure recited below. 1. […] Two separated experiments were performed as follows. a) With NADPH: 10 μL of 20 mg/mL liver microsomes and 40 μL of 10 mM NADPH were added to the incubations. […] The final concentration of microsomes was 0.5 mg/mL. 3. The reaction was started with the addition of 4 μL of 200 μM control compound or test compound solutions. Verapamil was used as positive control in this study. The final concentration of test compound or control compound was 2 μM. 4. Aliquots of 50 μL were taken from the reaction solution at 0, 15, 30, 45 and 60 min. […] Samples were centrifuged at 3,220 g for 40 minutes. A 90 μL aliquot of the supernatant was mixed with 90 μL of ultra-pure H2O and then used for LC-MS/MS analysis. 5. Data analysis. All calculations were carried out using Microsoft Excel. Peak areas were determined from extracted ion chromatograms. The slope value, k, was determined by linear regression of the natural logarithm of the remaining percentage of the parent drug vs. incubation time curve. The in vitro half-life (in vitro t1/2) was determined from the slope value: in vitro t1/2=−(0.693)/k.

[2] = Metabolic stability in mouse liver microsomes (in vitro t1/2); type: in vitro ADME; conditions: mouse liver microsomes 0.5 mg/mL, 2 μM compound; for Mouse microsome % 60 min: % remaining at 60 min
Description: as §1

[3] = Metabolic stability in rat liver microsomes (in vitro t1/2); type: in vitro ADME; conditions: rat liver microsomes 0.5 mg/mL, 2 μM compound; for Rat microsome % 60 min: % remaining at 60 min
Description: as §1

[4] = Pharmacokinetic assay in mouse (IV 3 mg/kg, PO 10 mg/kg); type: in vivo; conditions: male, CD1, mouse, plasma, read-out: Mouse F (%)
Excerpt: (§2) Pharmacokinetic Assays in Mouse and Rat
(§3) The following are assays that may be used to evaluate the pharmacokinetic properties of Formula (I) in mouse or rat. The assays follow a common procedure recited below.
(§4) 1. […] For PO (oral gavage), DMSO/PEG400 (10:90). Formulations freshly prepared on the day of dosing or prior to dosing. Storage at room temperature.
(§5) 2. Test Species: For Mouse: Male CD1 strain, approximately 6-8 weeks in age, approximately 20-30 g. For Rat: Male Sprague-Dawley strain, approximately 6-8 weeks in age, approximately 200-300 g.
(§6) 3. Dose Level: For IV, 3 mg/kg. For PO, 10 mg/kg.
(§7) 4. Number of animals: 3 per assay.
(§8) 5. PK time points: For IV (plasma): 5 min, 15 min, 1, 2, 4, 6, 8, 24 h post dose. For PO (plasma): 15 min, 30 min, 1, 2, 4, 6, 8, 24 h post dose.
(§9) 6. Blood Sample Collection and Processing. Blood was collected (˜0.2 mL per time point) from jugular vein. Blood of each sample was transferred into plastic micro centrifuge tubes containing anticoagulant of EDTA-K2. Blood samples were centrifuged at 2,000 g for 5 minutes at 4° C. to obtain plasma.
(§10) 7. Samples Analysis: Plasma samples were analyzed using LC/MS/MS method, and pharmacokinetic parameters (half-life: t1/2; oral bioavailability: F; volume of distribution: Vss).

[5] = Pharmacokinetic assay in rat (IV 3 mg/kg, PO 10 mg/kg); type: in vivo; conditions: male, Sprague-Dawley, plasma, read-out: Rat F (%)
Excerpt: as §2, §3, §4, §5, §6, §7, §8, §9, §10

CFA-induced arthritis [6] = test: Adjuvant-induced arthritis model in rat: Difference of Weight Bearing test (DWB); type: in vivo; conditions: SD rat, PO 3 days post CFA, compared to dexamethasone
CFA-induced arthritis [7] = test: Adjuvant-induced arthritis model in rat: Mechanical Allodynia test (MA); type: in vivo; conditions: SD rat, PO 3 days post CFA, compared to dexamethasone

Sequence of MCT1 (P53985 whole entry): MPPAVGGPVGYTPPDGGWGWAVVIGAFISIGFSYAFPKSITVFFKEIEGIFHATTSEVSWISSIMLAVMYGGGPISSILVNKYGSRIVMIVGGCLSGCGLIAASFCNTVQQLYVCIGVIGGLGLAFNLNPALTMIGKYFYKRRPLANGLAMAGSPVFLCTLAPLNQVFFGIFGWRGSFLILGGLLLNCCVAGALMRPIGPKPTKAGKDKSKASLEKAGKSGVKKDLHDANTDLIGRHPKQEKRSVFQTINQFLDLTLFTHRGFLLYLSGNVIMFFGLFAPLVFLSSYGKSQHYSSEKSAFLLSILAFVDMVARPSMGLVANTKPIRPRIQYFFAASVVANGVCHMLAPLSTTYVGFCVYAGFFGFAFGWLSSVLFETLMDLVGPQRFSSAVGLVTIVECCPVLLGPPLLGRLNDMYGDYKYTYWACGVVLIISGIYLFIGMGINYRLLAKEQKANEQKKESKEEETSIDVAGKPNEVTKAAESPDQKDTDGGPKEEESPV
Sequence of MCT1 (P35613 140-385 partner): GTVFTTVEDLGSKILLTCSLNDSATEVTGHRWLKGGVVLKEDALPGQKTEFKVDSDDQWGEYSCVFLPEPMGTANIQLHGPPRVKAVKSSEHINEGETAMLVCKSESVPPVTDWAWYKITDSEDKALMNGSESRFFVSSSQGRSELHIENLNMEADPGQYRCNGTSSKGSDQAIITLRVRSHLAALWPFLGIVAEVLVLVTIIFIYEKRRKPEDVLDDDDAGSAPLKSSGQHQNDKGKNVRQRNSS

| IC50 (MCT1) | bioavailability [4] | bioavailability [5] | Structure (SMILES) | other results |
| --- | --- | --- | --- | --- |
| > 33000 nM |  |  | CC(C)(OCc1cc(-c2cccc(OCC(F)(F)F)c2)n(Cc2ccccc2Cl)n1)C(=O)O [Example 43, 2-([1-[(2-Chlorophenyl)methyl]-5-[3-(2,2,2-trifluoroethoxy)phenyl]1H-pyrazol-3-yl]methoxy)-2-methylpropanoic acid] |  |
| > 100000 nM |  |  | CC(C)(OCc1cc(-c2cscn2)n(Cc2ccccc2Cl)n1)C(=O)O [Example 47, 2-([1-[(2-Chlorophenyl)methyl]-5-(1,3-thiazol-4-yl)-1H-pyrazol-3-yl]methoxy)-2-methylpropionic acid] |  |
| > 100000 nM |  |  | COc1cccc(-c2cc(COC(C)(C)C(=O)O)nn2Cc2ccccc2)c1 [Example 53, 2-([1-benzyl-5-(3-methoxyphenyl)-1H-pyrazol-3-yl]methoxy)-2-methyl-propanoic acid] |  |
| > 133000 nM |  |  | COc1cccc(-c2cc(COC(C)(C)C(=O)O)nn2-c2ccccc2Cl)c1 [Example 57, 2-([1-(2-chlorophenyl)-5-(3-methoxyphenyl)-1H-pyrazol-3-yl]methoxy)-2-methylpropanoic acid] | Human microsome % 60 min [1]: 80%; Mouse microsome % 60 min [2]: 100% |
| > 100000 nM |  |  | CC(C)C(=O)Nc1cccc(-c2cc(COC(C)(C)C(=O)O)nn2Cc2ccccc2Cl)c1 [Example 69, 2-([1-[(2-Chlorophenyl)methyl]-5-[3-(2-methylpropanamido)phenyl]-1H-pyrazol-3-yl]methoxy)-2-methylpropanoic acid] |  |
| > 100000 nM |  |  | CC(C)(OCc1cc(-c2cccc(S(C)(=O)=O)c2)n(Cc2ccccc2Cl)n1)C(=O)O [Example 70, 2-([1-[(2-Chlorophenyl)methyl]-5-(3-methanesulfonylphenyl)-1H-pyrazol-3-yl]methoxy)-2-methylpropanoic acid] |  |
| > 11000 nM |  |  | CC(C)CNc1cccc(-c2cc(COC(C)(C)C(=O)O)nn2Cc2ccccc2Cl)c1 [Example 73, 2-([1-[(2-chlorophenyl)methyl]-5-[3-[(2-methylpropyl)amino]phenyl]-1H-pyrazol-3-yl]methoxy)-2-methyl-propanoic acid] |  |
| > 100000 nM |  |  | CC(C)NC(=O)c1cccc(-c2cc(COC(C)(C)C(=O)O)nn2Cc2ccccc2Cl)c1 [Example 74, 2-([1-[(2-Chlorophenyl)methyl]-5-[3-[(propan-2-yl)carbamoyl]phenyl]-1H-pyrazol-3-yl]methoxy)-2-methyl-propanoic acid] |  |
| > 100000 nM |  |  | CC(C)(OCc1cc(Nc2ccccc2)n(Cc2ccccc2Cl)n1)C(=O)O [Example 75, 2-([1-[(2-chlorophenyl)methyl]-5-(phenylamino)-1H-pyrazol-3-yl]methoxy)-2-methylpropanoic Acid] |  |
|  | 24% | 72% | Cn1ncc2cccc(-n3nc(COC(C)(C)C(=O)O)cc3-c3cccc(OCC(C)(C)C)c3)c21 [Example 167, 2-([5-[3-(2,2-dimethylpropoxy)phenyl]-1-(1-methyl-1H-indazol-7-yl)-1H-pyrazol-3-yl]methoxy)-2-methyl-propanoic acid] | Human microsome % 60 min [1]: 84%; Rat microsome % 60 min [3]: 72%; Mouse microsome % 60 min [2]: 97% |
|  | 57% | 55% | CCOc1ccccc1Cn1nc(COC(C)(C)C(=O)O)cc1-c1cc(OC)cc(OC)c1 [Example 211, 2-([5-(3,5-Dimethoxyphenyl)-1-[(2-ethoxyphenyl)methyl]-1H-pyrazol-3-yl]-methoxy)-2-methylpropanoic acid] | Human microsome % 60 min [1]: 78%; Rat microsome % 60 min [3]: 57%; Mouse microsome % 60 min [2]: 43% |
|  | 100% | 29% | CCn1ncc2ccc(-c3cc(CO[C@](C)(CC)C(=O)O)nn3Cc3ccccc3Cl)cc21 [Example 220, (2R)-2-([1-[(2-chlorophenyl)methyl]-5-(1-ethyl-1H-indazol-6-yl)-1H-pyrazol-3-yl]methoxy)-2-methylbutanoic acid] | Human microsome t1/2, min ([1]; in vitro t1/2): ∞; Rat microsome % 60 min [3]: 86%; Difference in Weight Bearing, Minimal Efficacious Dose (CFA-induced arthritis [6]): 3 mg/kg; Mechanical Allodynia (Von Frey), Minimal Efficacious Dose (CFA-induced arthritis [7]): 3 mg/kg |
|  | 100% | 94% | CCn1ncc2ccc(-c3cc(COC(C)(C)C(=O)O)nn3-c3ccccc3N3CCC3)cc21 [Example 228, 2-([1-[2-(Azetidin-1-yl)phenyl]-5-(1-ethyl-1H-indazol-6-yl)-1H-pyrazol-3-yl]methoxy)-2-methylpropanoic acid] | Human microsome % 60 min [1]: 71%; Rat microsome % 60 min [3]: 91%; Mouse microsome % 60 min [2]: 96% |
|  | 76% | 76% | CCn1ncc2ccc(-c3cc(CO[C@@](C)(CC)C(=O)O)nn3Cc3ccccc3Cl)cc21 [Example 257, (S)-2-((1-(2-chlorobenzyl)-5-(1-ethyl-1H-indazol-6-yl)-1H-pyrazol-3-yl)methoxy)-2-methylbutanoic acid] | Human microsome % 60 min [1]: 96%; Rat microsome t1/2, min ([3]; in vitro t1/2): ∞; Mouse microsome t1/2, min ([2]; in vitro t1/2): ∞ |
|  | 100% | 100% | CC[C@@](C)(OCc1cc(-c2cccc(OC3CC3)c2)n(-c2ccccc2N2CCC2)n1)C(=O)O [Example 266] | Difference in Weight Bearing, Minimal Efficacious Dose (CFA-induced arthritis [6]): 3 mg/kg; Mechanical Allodynia (Von Frey), Minimal Efficacious Dose (CFA-induced arthritis [7]): 3 mg/kg |
|  | 64% | 54% | CCCn1ncc2ccc(-c3cc(CO[C@](C)(CC)C(=O)O)nn3-c3ccccc3N3CCC3)cc21 [Example 267, (2R)-2-([1-[2-(azetidin-1-yl)phenyl]-5-(1-propyl-1H-indazol-6-yl)-1H-pyrazol-3-yl]methoxy)-2-methylbutanoic acid] | Difference in Weight Bearing, Minimal Efficacious Dose (CFA-induced arthritis [6]): 3 mg/kg; Mechanical Allodynia (Von Frey), Minimal Efficacious Dose (CFA-induced arthritis [7]): 3 mg/kg |
|  | 77% | 57% | CCn1ncc2ccc(-c3cc(CO[C@](C)(CC)C(=O)O)nn3-c3ccccc3N3CCCC3)cc21 [Example 268, (2R)-2-([5-(1-ethyl-1H-indazol-6-yl)-1-[2-(pyrrolidin-1-yl)phenyl]-1H-pyrazol-3-yl]methoxy)-2-methylbutanoic acid] | Difference in Weight Bearing, Minimal Efficacious Dose (CFA-induced arthritis [6]): 1 mg/kg; Mechanical Allodynia (Von Frey), Minimal Efficacious Dose (CFA-induced arthritis [7]): 1 mg/kg |
|  | 100% |  | CCn1ncc2ccc(-c3cc(CO[C@](C)(CC)C(=O)O)nn3-c3ccccc3N3CCC3)cc21 [Example 269, (2R)-2-([1-[2-(Azetidin-1-yl)phenyl]-5-(1-ethyl-1H-indazol-6-yl)-1H-pyrazol-3-yl]methoxy)-2-methylbutanoic acid] |  |

| Structure (SMILES) | IC50 (MCT1) | bioavailability [4] | bioavailability [5] | other results |
| --- | --- | --- | --- | --- |
| CC(C)(OCc1cc(-c2cccc(OC3CCC3)c2)n(-c2ccccc2N2CCC2)n1)C(=O)O [Example 260, 2-([1-[2-(Azetidin-1-yl)phenyl]-5-(3-cyclobutoxyphenyl)-1H-pyrazol-3-yl]methoxy)-2-methylpropanoic acid] |  | 86% | 85% | Difference in Weight Bearing, Minimal Efficacious Dose (CFA-induced arthritis [6]): 1 mg/kg; Mechanical Allodynia (Von Frey), Minimal Efficacious Dose (CFA-induced arthritis [7]): 1 mg/kg |

Source: patent publication US11292767B2, “Heterocyclic inhibitors of MCT4” (Vettore, LLC, priority 2016, dated 2022)
